Data reported in paper PMC9814657, “Generative and reinforcement learning approaches for the automated de novo design of bioactive compounds” (Communications Chemistry, 2022).

Target: T1, epidermal growth factor receptor (EGFR) (Homo sapiens, UniProt P00533)
Assay: […] radiometric HotSpot kinase assay, 10-dose IC50, […] ATP (Reaction Biology)
Format: biochemical
Settings: not given

T1 sequence (P00533 25-1210): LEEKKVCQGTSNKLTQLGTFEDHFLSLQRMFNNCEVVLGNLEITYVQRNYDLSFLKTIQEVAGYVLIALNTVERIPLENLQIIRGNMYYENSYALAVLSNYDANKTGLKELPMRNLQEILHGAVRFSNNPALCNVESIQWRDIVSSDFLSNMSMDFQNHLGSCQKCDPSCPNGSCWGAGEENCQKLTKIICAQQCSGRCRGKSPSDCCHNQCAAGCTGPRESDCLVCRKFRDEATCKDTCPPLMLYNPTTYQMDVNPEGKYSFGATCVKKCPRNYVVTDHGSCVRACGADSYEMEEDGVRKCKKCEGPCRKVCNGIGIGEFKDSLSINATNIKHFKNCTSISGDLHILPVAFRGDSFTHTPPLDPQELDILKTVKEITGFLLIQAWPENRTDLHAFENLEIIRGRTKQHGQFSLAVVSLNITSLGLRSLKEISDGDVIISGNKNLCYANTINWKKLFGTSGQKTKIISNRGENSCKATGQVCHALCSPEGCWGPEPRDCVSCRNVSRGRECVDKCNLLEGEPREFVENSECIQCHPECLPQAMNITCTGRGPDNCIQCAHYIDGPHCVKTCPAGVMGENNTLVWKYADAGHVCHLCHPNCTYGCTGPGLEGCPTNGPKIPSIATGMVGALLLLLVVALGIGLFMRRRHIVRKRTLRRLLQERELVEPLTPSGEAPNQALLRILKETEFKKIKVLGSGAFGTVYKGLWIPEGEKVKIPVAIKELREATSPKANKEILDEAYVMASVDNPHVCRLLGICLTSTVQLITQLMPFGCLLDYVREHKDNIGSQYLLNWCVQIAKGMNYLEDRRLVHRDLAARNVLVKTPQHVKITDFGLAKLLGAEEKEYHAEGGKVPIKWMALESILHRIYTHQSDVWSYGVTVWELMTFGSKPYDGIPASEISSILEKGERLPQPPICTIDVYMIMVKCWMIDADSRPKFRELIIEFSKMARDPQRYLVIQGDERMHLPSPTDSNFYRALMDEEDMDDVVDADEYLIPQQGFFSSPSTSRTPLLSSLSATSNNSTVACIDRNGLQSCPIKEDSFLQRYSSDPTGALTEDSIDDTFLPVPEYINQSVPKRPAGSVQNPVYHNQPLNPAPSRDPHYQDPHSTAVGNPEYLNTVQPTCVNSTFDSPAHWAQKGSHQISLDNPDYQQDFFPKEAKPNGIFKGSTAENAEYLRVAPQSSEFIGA

Work on `Nc1c(Cl)cc(Nc2ncnc3c(F)cccc23)cc1Cl` [compound 4, Z1823625743] yielded an IC50 of 1.4 µM.

Going from `Fc1ccc(Nc2ncnc3ccc(Br)cc23)cc1` [compound 1, Z1192045732] to `Nc1c(Cl)cc(Nc2ncnc3ccc(F)cc23)cc1Cl` [compound 2, Z1576525970], the pIC50 falls from 7.5 pIC50 to 7.4 pIC50.

Target: T1, epidermal growth factor receptor (EGFR)
Assay: biochemical
Parameters: 33P radiometric HotSpot filter-binding EGFR kinase assay, 10 uM ATP, Reaction Biology
Settings: 10 uM ATP
Description: (§1) Compounds that emerged as computational hits were purchased from Enamine (https://www.enaminestore.com/) and resuspended in 100% DMSO at 10 mM concentration. In vitro experiments were performed at Reaction Biology (https://www.reactionbiology.com/) using a radioactive assay based on the transfer of ^33P-labeled phosphate from ATP to the kinase substrate. The HotSpot^SM assay utilizes a miniaturized filter binding, where reaction mixtures are spotted onto filter papers. Then reaction mixture binds the radioisotope-labeled catalytic product. Unreacted phosphate is removed via washing of the filter papers. All reactions were carried out at 10 μM ATP concentrations. Seventeen computational hit molecules were matched with Enamine REAL. All of the predicted active compounds were derivatives of 4-anilinoquinazoline, a chemotype that was well represented in Enamine REAL (Table S1). The predicted active compounds contained a few small substituents on the quinazoline ring (positions 5–8: F, Cl, Br, OCH3) but a wide range of substituents on the 4-anilino group. […] The twenty three 4-anilinoquinazoline analogs were dissolved in DMSO and sent to Reaction Biology (https://www.reactionbiology.com/) for EGFR enzymatic assay screening. Two compounds in the predicted active series were insoluble in DMSO; therefore, biological tests were not performed. The 4-anilinoquinazoline analogs were initially tested in single-dose duplicate mode at a concentration of 1 μM and percent inhibition relative to DMSO control was determined (Table S1).

Compared with `Cc1ccc(Nc2ncnc3cccc(F)c23)cc1F` [ZINC000480349471], `COCCOc1ccc(Nc2ncnc3cccc(F)c23)cc1F` [ZINC000480418233] is lower in inhibition at 1 µM: 83% for the first, 8% for the second.

Compared with `COCCOc1ccc(Nc2ncnc3c(F)cccc23)cc1Cl` [ZINC000302873009], `Nc1c(Cl)cc(Nc2ncnc3c(F)cccc23)cc1Cl` [ZINC000302791534] is higher in inhibition at 1 µM: 16% for the first, 47% for the second.

`COCCOc1ccc(Nc2ncnc3cc(F)c(OC)cc23)cc1F` [ZINC000302555896] and `Fc1ccc(Nc2ncnc3ccc(F)cc23)cc1` [ZINC000092611293] are the same in inhibition at 1 µM: 12% for the first, 12% for the second.

First: Nc1c(Cl)cc(Nc2ncnc3ccc(F)cc23)cc1Cl [ZINC000301931984]
Second: Fc1ccc(Nc2ncnc3ccc(Br)cc23)cc1 [ZINC000000099087]
The inhibition at 1 µM of the first is lower: 89% for the first, 96% for the second.

First: CN(C)CCc1ccc(Nc2ncnc3ccc(F)cc23)cc1 [ZINC000301950472]
Second: CN(C)CCc1ccc(Nc2ncnc3ccc(Cl)cc23)cc1 [ZINC000594704454]
The inhibition at 1 µM of the first is higher: 10% for the first, 8% for the second.

Going from `CNC(=O)CCOc1ccc(Nc2ncnc3cc(Cl)ccc23)cc1` [ZINC000301175853] to `OCCCOc1ccc(Nc2ncnc3cc(Cl)ccc23)cc1` [ZINC000572311742], the inhibition at 1 µM falls from 12% to 0%.

Going from `OC1CCN(c2ccc(Nc3ncnc4ccc(Br)cc34)cc2)CC1` [ZINC000112964683] to `CN(C)C1CCN(c2ccc(Nc3ncnc4ccc(Br)cc34)cc2)CC1` [ZINC000301979927], the inhibition at 1 µM falls from 10% to 8%.

Going from `OC1CCCCC1Oc1ccc(Nc2ncnc3ccc(F)cc23)cc1` (centres unmarked) [ZINC000440544230] to `Fc1ccc2ncnc(Nc3ccc(N4CCCC4)cc3)c2c1` [ZINC000041479925], the inhibition at 1 µM rises from 4% to 8%.

Going from `CN(C)C1CCN(c2ccc(Nc3ncnc4ccc(F)cc34)cc2)CC1` [ZINC000089266948] to `CN(C)C1CCN(c2ccc(Nc3ncnc4c(F)cccc34)cc2)CC1` [ZINC000302845052], the inhibition at 1 µM falls from 14% to 12%.

For `CN(C)CC1CCN(c2ccc(Nc3ncnc4ccc(Br)cc34)cc2)CC1` [ZINC000737413605], the inhibition at 1 µM was 14%.

Target: T1, epidermal growth factor receptor (EGFR)
Assay: biochemical
Parameters: 33P radiometric HotSpot filter-binding EGFR kinase assay, 10 uM ATP, Reaction Biology
Settings: 10 uM ATP; read-out: EGFR pIC50 (converted)
Description: as §1, with “REAL.” for “REAL. All of the predicted active compounds were derivatives of 4-anilinoquinazoline, a chemotype that was well represented in Enamine REAL (Table S1). The predicted active compounds contained a few small substituents on the quinazoline ring (positions 5–8: F, Cl, Br, OCH3) but a wide range of substituents on the 4-anilino group.”, “Two compounds in the predicted active series were insoluble in DMSO; therefore, biological tests were not performed.” left out

First: Cc1ccc(Nc2ncnc3cccc(F)c23)cc1F [ZINC000480349471]
Second: Fc1ccc(Nc2ncnc3ccc(Br)cc23)cc1 [ZINC000000099087]
The IC50 of the first is 6.3-fold higher: 0.2 µM for the first, 0.0316 µM for the second.

Going from `Nc1c(Cl)cc(Nc2ncnc3ccc(F)cc23)cc1Cl` [ZINC000301931984] to `Nc1c(Cl)cc(Nc2ncnc3c(F)cccc23)cc1Cl` [ZINC000302791534], the IC50 rises from 0.0398 µM to 1.26 µM (32-fold).
